In PMC5610748, “Evaluation of Novel α-(Acyloxy)-α-(Quinolin-4-yl) Acetamides as Antiplasmodial Agents” (Iranian Journal of Pharmaceutical Research : IJPR, 2017):
Read-outs that look alike come from different tables or passages of the source.

How the values were obtained:
[1] = test system: P. falciparum 3D7 chloroquine-sensitive strain; assay: In-vitro antiplasmodial test (Giemsa-stained smears); type: cell-based, Plasmodium falciparum; details: read-out: P. falciparum IC50
Method: The P. falciparum 3D7 chloroquine-sensitive strain used throughout the study. In-vitro culture of P. falciparum was carried out according to the method described by previously ([12]-[14]). Briefly, parasites were cultured on human erythrocytes (blood group O^+), provided by the Blood Transfusion Organization (Zanjan, Iran), in RPMI 1640 medium completed with 5% of human AB^+ serum, 0.3 g/100 mL Albumax I, 25 mM HEPES, 19 mM sodium carbonate and 30 µg/mL gentamicin sulfate at pH 7.2. Type O^+ erythrocytes were washed three times with RPMI 1640 and stored at 4 °C.
Parasites were aerated in 25 mL flasks under 3% oxygen, 6% carbon dioxide and 91% nitrogen atmosphere. The medium was changed each day.
Pure compounds were dissolved in DMSO at concentration of 10 mg/mL and diluted with complete malaria culture medium to reach 1 mg/mL before use. Parasites were synchronized to the ring stage by sorbitol method described previously ([15]). From 2-fold dilution series (50-0.39 µg/mL) of compounds prepared in assay medium, 20 µL added to each well of 96-well microtiter plates in triplicate. One hundred eighty µL of synchronous P. falciparum culture (1% parasitemia, 2% hematocrit) added to each well reaching a final volume of 200 µL per well. […] Plates were incubated at 37 °C for 24 h. […] After 24 h incubation, Giemsa stained thin smears were made and parasitemia was confirmed by the numeration of 1000 erythrocytes per slide. Data acquired by counting the erythrocytes in Giemsa stain were imported in Microsoft Excel spreadsheet and IC50 values were calculated from dose-response curves.

[2] = test system: human hepatocellular carcinoma cell line (HepG2); assay: In-vitro cytotoxicity assay (MTT); type: cell-based; details: HepG2 cells, 24 h incubation
Method: In drug discovery approaches against malaria, one of the important strategies is the safety of active compounds against human. So, the toxicity of active compounds against P. falciparum was assessed on human hepatocellular carcinoma cell line (HepG2) by using MTT (3-[4,5-dimethylthiazol-2-yl] -2,5 diphenyl tetrazolium bromide) assay ([16]-[17]). The cells were cultured in RPMI 1640 medium enriched with 10% FBS (Fetal Bovine Serum) and incubated at 37 °C with 5% CO2 and 96% humidity. After several subcultures, cells were distributed in 96-well plates at 4,000 cells in 100 µL of culture medium and incubated for 24 h at the same condition to allow attachment of cells to the bottom of wells. Then culture medium removed and 100 µL of two-fold serially diluted concentrations of drug (400-1.56 µg/mL) added to each well in triplicate. Microtiter plates further incubated for 24 h in the same condition. Culture medium without drug was used as negative control. After the incubation time, the drug containing medium discharged and for evaluation of cell survival, 25 µL of MTT solution (4 mg/mL in PBS) added to each well and plates incubated for 3 h (in same condition). Then 100 µL of DMSO added to each well and plates were gently shaken to dissolve the formed formazan crystals. The absorbance of each well measured at 540 nm using an ELISA plate reader (Infinite M200, Tecan). The GI% (Growth Inhibition percent) was calculated using the formula Growth Inhibition% = 100 – […], where ODtest is the mean absorbance of treated cells and ODcontrol is the mean absorbance of a negative control. The cell survival of control assumed 100% and IC50 values generated from dose-response curves for each cell line.

[3] = Plasmodium falciparum, 3D7 chloroquine-sensitive strain, ring-stage synchronized, 24 h incubation, parasitemia by Giemsa smears
[4] = 3D7 chloroquine-sensitive strain, ring-stage synchronized, 24 h incubation, parasitemia by Giemsa smears

SMILES | IC50 [1, 4] [µM] | also measured
CCN(CC)CCCC(C)Nc1ccnc2cc(Cl)ccc12 (stereo not drawn) [CQ, Chloroquine, reference compound] |  | IC50 ([1]; Plasmodium falciparum, 3D7, 24 h): 0.7 µM
O=C(OC(C(=O)NC1CCCCC1)c1ccnc2ccccc12)c1ccccc1 (stereo not drawn) [Compound 1] |  | IC50 [1, 3]: 1.51 µM; IC50 ([2]; Homo sapiens): 230 µM
CC(C)(C)c1ccc(C(=O)OC(C(=O)NC2CCCCC2)c2ccnc3ccccc23)cc1 (stereo not drawn) [Compound 2] | 2.64 | IC50 [2]: 191 µM
O=C(OC(C(=O)NC1CCCCC1)c1ccnc2ccccc12)c1ccc(Cl)cc1 (stereo not drawn) [Compound 4] | 5.02 | 
O=C(OC(C(=O)NC1CCCCC1)c1ccnc2ccccc12)c1ccc(I)cc1 (stereo not drawn) [Compound 8] | 3.5 | 
CC(C)(C)NC(=O)C(OC(=O)c1ccccc1)c1ccnc2ccccc12 (stereo not drawn) [Compound 11] | 4.35 | 
CC(C)(C)NC(=O)C(OC(=O)c1ccc(Cl)cc1)c1ccnc2ccccc12 (stereo not drawn) [Compound 13] | 5.85 | 
CC(C)(C)NC(=O)C(OC(=O)c1ccc(Br)cc1)c1ccnc2ccccc12 (stereo not drawn) [Compound 16] | 5.1 | 
CC(C)(C)NC(=O)C(OC(=O)c1ccc(C#N)cc1)c1ccnc2ccccc12 (stereo not drawn) [Compound 17] | 3.08 | 
CC(C)(C)NC(=O)C(OC(=O)c1cccc2ccccc12)c1ccnc2ccccc12 (stereo not drawn) [Compound 18] | 6.95 | 
Cc1cccc(C)c1NC(=O)C(OC(=O)c1ccccc1)c1ccnc2ccccc12 (stereo not drawn) [Compound 19] | 4.31 | 
Cc1cccc(C)c1NC(=O)C(OC(=O)c1ccc(C(C)(C)C)cc1)c1ccnc2ccccc12 (stereo not drawn) [Compound 20] |  | IC50 [1, 3]: 1.37 µM; IC50 ([2]; Homo sapiens): 199 µM
Cc1cccc(C)c1NC(=O)C(OC(=O)c1ccc(Cl)cc1)c1ccnc2ccccc12 (stereo not drawn) [Compound 21] | 4.18 | 
Cc1cccc(C)c1NC(=O)C(OC(=O)c1cccc2ccccc12)c1ccnc2ccccc12 (stereo not drawn) [Compound 22] |  | IC50 [1, 3]: 1.32 µM; IC50 ([2]; Homo sapiens): 254 µM
